Test results: US8962647B1, “Conjugate of polyethylene gylcol and naloxone and pharmaceutical composition and use thereof” (Jenkem Technology Co., Ltd. (Tianjin), priority 2012, dated 2015)

Target: T1, MOR receptors (Homo sapiens, UniProt P35372)
T1 construct: expressed in transfected cells; host or cells: CHO cells
Assay: cell-based
Type: cell-based
Details: CHO cells stably expressing MOR/Gα16; calcium flux caused by known agonist DAMGO; fluorescence at 525 nm
Text: A cell line co-transfected with MOR and Gα16 is established, such that activation of receptors can activate Ga16 protein, which in turn activates phospholipase C (PLC) to generate IP3 and DAG. IP3 can bind to IP3 receptors on endoplasmic reticulum and mitochondria in the cells, thereby triggering the release of intracellular calcium. Therefore, detection of intracellular calcium levels can be employed as a measure for detecting the activation state of MOR. Fluo-4/AM is a calcium fluorescent probe indicator for measuring calcium ions. It is a non-polar liposoluble compound, which, upon entering a cell and by the action of lipolytic enzymes, releases Fluo-4 while the AM moiety is dissociated. As a polar molecule, Fluo-4 cannot easily pass through the lipid bilayer membrane, thus it is retained in the cells for a long duration. Eventually, the level of activation of Gα proteins is reflected by measuring the intensity of fluorescence that is excited.
1. inoculating CHO cells stably expressing MOR/Gα16 in a 96-well plate and incubating the same overnight;
2. removing the medium from the wells inoculated with cells, adding freshly prepared dye (40 μl/well), and incubating for 40 minutes in a thermostatic incubator of 37° C.;
3. diluting the test substances with a calcium buffer and homogenizing; […]

T1 sequence (P35372 whole entry): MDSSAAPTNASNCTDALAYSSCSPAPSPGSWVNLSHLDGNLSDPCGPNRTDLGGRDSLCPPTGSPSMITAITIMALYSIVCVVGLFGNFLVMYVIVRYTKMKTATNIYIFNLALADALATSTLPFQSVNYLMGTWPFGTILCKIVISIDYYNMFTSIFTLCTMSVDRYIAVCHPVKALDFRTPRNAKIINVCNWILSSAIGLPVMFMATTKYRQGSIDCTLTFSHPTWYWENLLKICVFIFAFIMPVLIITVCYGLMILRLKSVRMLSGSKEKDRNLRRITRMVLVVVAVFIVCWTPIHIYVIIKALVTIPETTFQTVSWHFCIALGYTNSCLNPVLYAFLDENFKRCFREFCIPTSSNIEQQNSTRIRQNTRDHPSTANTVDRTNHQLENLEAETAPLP

Question: For `C=CCN1CC[C@]23c4c5ccc(O)c4O[C@H]2[C@@H](OCCOCCOCCOCCO[C@H]2CC[C@@]4(O)[C@H]6Cc7ccc(O)c8c7[C@@]4(CCN6CC=C)[C@H]2O8)CC[C@@]3(O)[C@H]1C5` [(α,α)-NAL24, double-end substituted tetraethylene glycol-naloxone], which IC50 is on record?
Answer: 7.16 nM

Question: Which IC50 does the source give for `COC(=O)/C=C/C(=O)N[C@@H]1CC[C@@]2(O)[C@H]3Cc4ccc(O)c5c4[C@@]2(CCN3CC2CC2)[C@H]1O5` [Beta-FNA] here?
Answer: 2.62 nM
